Key:
[1] = Measurement of solubility of the oxidation stabilizer in white mineral oil (visual observation); details: Table 1
Method: A lubricant composition was prepared by mixing a white mineral oil and the oxidation stabilizer of Table 1 below in a weight ratio of 100:0.1.
The lubricant composition was left for 1 hour and observed visually. If precipitation occurred or the lubricant composition discolored or became opaque, it was evaluated as “X.” When no precipitation occurred and the lubricant composition was colorless and transparent, it was evaluated as “O.”

[2] = Acrylic acid self-polymerization (time until PAA formation); details: for polymerization stability time / PAA formation inhibition effect (in words): Table 1; for Polymerization time: oil:stabilizer 100:0.5, AA:lubricant composition 1:1 by weight, 100° C.
Method: The reactor was heated to 100° C., followed by observing whether a self-polymer (PAA) was formed in the reactor every 10 minutes. As soon as the PAA was observed visually, the experiment was stopped and a polymerization time was recorded.

[3] = nitrogen atmosphere, PAA observed visually every 10 minutes

Compound	Polymerization time [2, 3]	further results
COc1ccc(O)c(C(C)(C)C)c1 [A-1, Butylated hydroxyanisole]	>150 h	solubility in the white mineral oil (in words) [1]: high; polymerization stability time / PAA formation inhibition effect (in words) [2]: greatly increased
COc1cc(C(C)(C)C)c(O)c(C(C)(C)C)c1 [A-2, 2,6-Di-tert-butyl-4-methoxyphenol]	23 h	–
COc1ccc(O)c(C(C)(C)C)c1 [A-3, 3-tert-butyl-4-hydroxyanisole]	72 h	–
Cc1cc(C(C)(C)C)c(O)c(C(C)(C)C)c1 [B-1, Butylated hydroxytoluene]	2 h	polymerization stability time / PAA formation inhibition effect (in words) [2]: greatly reduced
COc1ccc(O)cc1 [B-2, 4-Methoxyphenol]	>150 h	solubility in the white mineral oil (in words) [1]: greatly decreased
c1ccc2c(c1)Nc1ccccc1S2 [B-3, Phenothiazine]	>150 h	solubility in the white mineral oil (in words) [1]: not substantially dissolved
Cc1c(C)c2c(c(C)c1O)CC[C@@](C)(CCC[C@H](C)CCC[C@H](C)CCCC(C)C)O2 [B-4, Vitamin E]	0.5 h	–
CC(C)(C)c1cccc(C(C)(C)C)c1O [B-5, 2,6-Di-tert-butylphenol]	–	Polymerization time ([2]; class symbol): — (When the PAA was formed within 10 minutes, it was evaluated as “-.”)
CC(C)(C)c1cc(CO)cc(C(C)(C)C)c1O [B-6, 2,6-Di-tert-butyl-4-hydroxymethylphenol]	2 h	–
CC(C)(C)c1cc(C(=O)O)cc(C(C)(C)C)c1O [B-7, 3,5-Di-tert-butyl-4-hydroxybenzoic acid]	0.333 h	–
CCOP(=O)(Cc1cc(C(C)(C)C)c(O)c(C(C)(C)C)c1)OCC [B-8, Diethyl 3,5-Di-tert-butyl-4-hydroxybenzylphosphonate]	0.333 h	–
CCC(C)(C)c1ccc(O)c(C(C)(C)CC)c1 [B-9, 2,4-Di-tert-amylphenol]	2 h	–
CCc1cc(Cc2cc(CC)cc(C(C)(C)C)c2O)c(O)c(C(C)(C)C)c1 [B-10, 2,2′-Methylenebis(6-tert-butyl-4-ethylphenol)]	0.333 h	–
CC(C)(C)CC(C)(C)c1cc(O)c(C(C)(C)CC(C)(C)C)cc1O [B-11, 2,5-Bis(1,1,3,3-tetramethylbutyl) hydroquinone]	2 h	–
CCCCCCCCSc1nc(Nc2cc(C(C)(C)C)c(O)c(C(C)(C)C)c2)nc(SCCCCCCCC)n1 [B-12]	–	Polymerization time ([2]; class symbol): — (When the PAA was formed within 10 minutes, it was evaluated as “-.”)
CC(C)(C)c1cc(CCC(=O)OCCSCCOC(=O)CCc2cc(C(C)(C)C)c(O)c(C(C)(C)C)c2)cc(C(C)(C)C)c1O [B-13, 2,2″-Thiodiethylene Bis [3-(3,5-di-tert-butyl-4-hydroxyphenyl) propionate]]	–	Polymerization time ([2]; class symbol): — (When the PAA was formed within 10 minutes, it was evaluated as “-.”)
CCc1cc(C(C)(C)C)c(O)c(C(C)(C)C)c1 [B-14, 2,6-Di-tert-butyl-4-ethylphenol]	–	Polymerization time ([2]; class symbol): — (When the PAA was formed within 10 minutes, it was evaluated as “-.”)
CC(C)(C)c1cc(O)c(O)c(C(C)(C)C)c1 [B-17, 3,5-Di-tert-butylcatechol]	5 h	–
CCCCCCCCOc1ccc(C(=O)c2ccccc2)c(O)c1 [B-18, 2-hydroxy-4-n-octyloxybenzophenone]	0.333 h	–
CCCCCCCCSc1nc(Nc2cc(C(C)(C)C)c(O)c(C(C)(C)C)c2)nc(SCCCCCCCC)n1 [B-19]	0.333 h	–
bis(nonylphenyl)amine [B-16]	0.667 h	–
